In PubChem BioAssay (NCI):
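Growth conditions: 96-well plates. Treatment: test compound, 48 hours, 5 concentrations. Analysis: linear interpolation between bracketing concentrations; unreached endpoints set to highest concentration. At the GI50, growth is halved. TGI: total growth inhibition.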

Tested on: RXF-631 renal
Assay: NCI tumour cell line growth inhibition, 48 h

SMILES | TGI [µM] | GI50 [µM]
[N-]=[N+]=Nc1ccc(S(=O)(=O)Oc2cc(OS(=O)(=O)c3ccc(N=[N+]=[N-])cc3)cc(OS(=O)(=O)c3ccc(N=[N+]=[N-])cc3)c2)cc1 | > 100 | –
O=C(CC(O)(c1ccccc1)c1ccc(Cl)cc1)NC(=O)c1ccccc1O (stereo not drawn) | 74.8 | –
c1ccc([CH2][Sn]([CH2]c2ccccc2)([S]c2cccc3cccnc23)[S]c2cccc3cccnc23)cc1 | 0.552 | 0.225
CCCCN(CCCC)C(=Nc1ccccc1)N(CCCC)CCCC | 26.2 | –
COc1ccc(C(=O)O/N=C2\CCCC\C2=C/c2ccccc2)cc1 | > 100 | –
O=C(Nc1nc2ncn(CCOC(=O)c3ccccc3)c2c(=O)[nH]1)c1ccccc1 | > 100 | –
COC(=O)C1=CC(=O)C(C(=O)Nc2ccc(OC)cc2)C(c2ccccc2)O1 (stereo not drawn) | > 83.6 | –
CCc1ccc(Cc2ccc(CC)c(NC(=O)C(=O)Cc3nc4ccccc4nc3C)c2CC)c(CC)c1NC(=O)C(=O)Cc1nc2ccccc2nc1C | > 100 | –
CC(C)NC(=O)OCc1nnn2c1C(OC(=O)NC(C)C)CC2 (stereo not drawn) | > 100 | –
CCOC(=O)C(C(=O)c1ccccc1-c1ccccc1C(=O)O)=P(c1ccccc1)(c1ccccc1)c1ccccc1 | > 100 | –
CN1CCC(O)C(CNC23CC4CC(CC(C4)C2)C3)C1 (stereo not drawn) | > 100 | –
COc1ccc(NC(=O)CC/C(CC(=O)c2ccco2)=N/Nc2ccc([N+](=O)[O-])cc2[N+](=O)[O-])cc1 | > 100 | –
